Experimental data: patent US11286251B2, “Matrix metalloproteinase inhibitors and imaging agents, and methods using same” (Yale University, priority 2016, dated 2022)
Entries after “also recorded” stand apart in the source; their conditions may differ. Read-outs that look alike come from different tables or passages of the source.

Columns and labels:
rhMMP-7 = target: T1, rhMMP-7 (Homo sapiens, UniProt P09237); test: MMP inhibition assay, fluorogenic substrate cleavage (Ki); details: read-out: Ki rhMMP-7; mean ± SE
T1 sequence (P09237 95-267): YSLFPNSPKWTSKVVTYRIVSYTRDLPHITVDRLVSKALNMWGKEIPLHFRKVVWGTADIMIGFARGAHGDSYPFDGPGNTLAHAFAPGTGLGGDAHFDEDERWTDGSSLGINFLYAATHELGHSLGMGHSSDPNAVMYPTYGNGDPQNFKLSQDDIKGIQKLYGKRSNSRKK
Procedure: (§1) MMPs were purchased from R&D Systems (Minneapolis, Minn.). MMP inhibition assays were carried out in 50 mM Tris/HCl buffer, pH=6.8, 10 mM CaCl2 at 25° C. […] Titration experiments were carried out to determine active enzyme concentration for each MMP prior to the assay. For each probe, the % of inhibition was determined from five different concentrations in triplicates, chosen to reach a range of 20-80% inhibition.
(§2) The recombinant human MMPs including rhMMP-2, rhMMP-9, and rhMMP-12 obtained from R&D Systems (Minneapolis, Minn., USA) were activated by 1 mM p-aminophenylmercuric acetate (APMA, Sigma) at 37° C. for certain hours according to the manufacturer's instructions. The activated MMPs were diluted in the assay buffer consisting of 50 mM Tris, 10 mM CaCl2, 150 mM NaCl, 0.05% Brij-35 (w/v), pH 7.5 (TCNB). The assays were carried out in 96-well non-binding surface black microplates (Fisher Scientific).
(§3) The solutions were incubated at room temperature for 20 min. 10 μL of the fluorogenic MMP substrate i.e. Mca-KPLGL-Dpa-AR-NH2 (R&D Systems) at 4 different concentrations (such as 50.0 μM, 40.0 μM, 30.0 μM, and 20.0 μM) in assay buffer were added before starting the fluorescence measurements. The kinetics (v) of fluorescence changes were measured at excitation and emission wavelengths of 320 nm and 405 nm for 30 min (1.44 min intervals, sensitivity 100, shaking intensity 4, duration 30 s) by a fluorescent plate reader (BIO-TEK/Synergy HT). The inhibition constants (Ki) of the inhibitor with MMPs were calculated from the mean velocity values using GraphPad Prism 6 by the equation:

rhMMP-12 = rhMMP-12 (Homo sapiens, UniProt P39900); test: as above
rhMMP-12, sequence (P39900 106-470): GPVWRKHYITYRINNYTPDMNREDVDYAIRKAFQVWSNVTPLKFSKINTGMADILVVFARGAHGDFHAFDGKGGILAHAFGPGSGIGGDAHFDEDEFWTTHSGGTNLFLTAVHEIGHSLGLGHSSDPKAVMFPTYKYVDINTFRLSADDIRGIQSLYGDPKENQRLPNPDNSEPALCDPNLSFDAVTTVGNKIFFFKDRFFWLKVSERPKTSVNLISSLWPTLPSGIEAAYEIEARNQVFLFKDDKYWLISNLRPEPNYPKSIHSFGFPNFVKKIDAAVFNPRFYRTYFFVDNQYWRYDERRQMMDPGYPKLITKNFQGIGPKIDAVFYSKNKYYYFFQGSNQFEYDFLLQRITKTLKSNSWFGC
Procedure: as §1, §2, §3

rhMMP-13 = rhMMP-13 (Homo sapiens, UniProt P45452); test: as above; details: read-out: Ki rhMMP-13; mean ± SE
Procedure: as §1, §2, §3

rhMMP-2 = target: T2, rhMMP-2 (Homo sapiens, UniProt P08253); test: as above
T2 sequence (P08253 110-660): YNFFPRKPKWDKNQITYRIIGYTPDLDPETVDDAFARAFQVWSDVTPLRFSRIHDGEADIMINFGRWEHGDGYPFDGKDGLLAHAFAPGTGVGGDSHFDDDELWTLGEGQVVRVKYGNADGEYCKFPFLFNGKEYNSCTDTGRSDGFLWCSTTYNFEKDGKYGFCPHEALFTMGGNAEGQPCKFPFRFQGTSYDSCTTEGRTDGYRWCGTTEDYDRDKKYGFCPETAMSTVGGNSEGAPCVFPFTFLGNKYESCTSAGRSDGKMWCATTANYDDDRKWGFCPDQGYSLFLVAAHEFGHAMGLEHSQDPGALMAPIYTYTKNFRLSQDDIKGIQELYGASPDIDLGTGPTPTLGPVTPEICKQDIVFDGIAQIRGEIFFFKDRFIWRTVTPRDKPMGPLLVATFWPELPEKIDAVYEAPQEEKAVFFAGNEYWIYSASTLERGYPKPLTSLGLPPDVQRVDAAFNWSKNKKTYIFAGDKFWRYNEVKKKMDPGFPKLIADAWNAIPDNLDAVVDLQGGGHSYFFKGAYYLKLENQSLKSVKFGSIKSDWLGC
Procedure: (§4) MMP inhibition assays were carried out in 50 mM Tris/HCl buffer, pH=6.8, 10 mM CaCl2 at 25° C. […] Titration experiments were carried out to determine active enzyme concentration for each MMP prior to the assay.
as §2
(§5) The solutions were incubated at room temperature for 20 min. 10 μL of the fluorogenic MMP substrate i.e. Mca-KPLGL-Dpa-AR-NH2 (R&D Systems) at 4 different concentrations (such as 50.0 μM, 40.0 μM, 30.0 μM, and 20.0 μM) in assay buffer were added before starting the fluorescence measurements. […] The inhibition constants (Ki) of the inhibitor with MMPs were calculated from the mean velocity values using GraphPad Prism 6 by the equation:

rhMMPs = test: In vitro MMP binding screens (panel); details: several MMPs
Procedure: as §1, §2, §3

rhMMP-9 = rhMMP-9 (Homo sapiens, UniProt P14780); test: MMP inhibition assay, fluorogenic substrate cleavage (Ki)
rhMMP-9, sequence (P14780 107-707 limits assumed): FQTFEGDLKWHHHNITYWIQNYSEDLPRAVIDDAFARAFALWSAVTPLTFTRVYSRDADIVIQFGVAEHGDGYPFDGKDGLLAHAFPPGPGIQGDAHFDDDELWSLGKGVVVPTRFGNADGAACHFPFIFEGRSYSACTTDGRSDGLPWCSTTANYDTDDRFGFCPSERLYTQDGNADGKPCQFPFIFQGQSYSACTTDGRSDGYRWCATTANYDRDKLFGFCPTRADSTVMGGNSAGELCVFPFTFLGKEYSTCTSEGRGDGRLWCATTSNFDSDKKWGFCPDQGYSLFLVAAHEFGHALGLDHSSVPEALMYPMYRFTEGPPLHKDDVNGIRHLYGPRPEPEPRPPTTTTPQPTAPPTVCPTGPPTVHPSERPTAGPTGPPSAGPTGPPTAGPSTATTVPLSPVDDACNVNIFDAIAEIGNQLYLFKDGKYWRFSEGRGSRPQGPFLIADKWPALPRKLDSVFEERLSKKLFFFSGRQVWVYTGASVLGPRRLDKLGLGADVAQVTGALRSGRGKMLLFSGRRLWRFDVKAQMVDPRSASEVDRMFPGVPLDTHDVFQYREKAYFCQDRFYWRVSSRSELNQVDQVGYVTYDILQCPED
Procedure: as §4, §2, §5

Aqueous solubility = type: physicochemical
[1] = read-out: Ki rhMMP-12, mean ± SE
[2] = read-out: Ki rhMMP-2, mean ± SE
[3] = read-out: Ki rhMMP-9, mean ± SE

Ki (rhMMP-7)	Ki (rhMMP-12; [1])	Ki (rhMMP-13)	Ki (rhMMP-2; [2])	Ki (rhMMP-9; [3])	Compound	affinity for rhMMP-12 (in words) (rhMMP-12)	affinity for rhMMP-2 (in words) (rhMMP-2)	MMP binding / inhibition constants (in words) (rhMMPs)	affinity for rhMMP-9 (in words) (rhMMP-9)	water solubility (in words) (Aqueous solubility)	Ki (rhMMP-12)	Ki (rhMMP-2)	Ki (rhMMP-9)
–	2.1 ± 0.3 nM	–	8.6 ± 1.3 nM	8.8 ± 0.8 nM	CC(C)CC1C(=O)NC(C(=O)NCCOCCOCCOCCF)Cc2ccc(cc2)OCCCC1C(=O)NO [Compound 17, (6S,7R,10S)—N10-(2-(2-(2-(2-fluoroethoxy)ethoxy)ethoxy)ethyl)-N^6-hydroxy-7-isobutyl-8-oxo-2-oxa-9-aza-1(1,4)-benzenacycloundecaphane-6,10-dicarboxamide]	–	–	–	–	–	–	–	–
17.1 ± 0.1 nM	1 ± 0.2 nM	15.3 ± 5.4 nM	5.8 ± 0.4 nM	20.4 ± 2 nM	CNC(=O)[C@H](CCCNC(=N)N)NC(=O)[C@@H]1Cc2ccc(cc2)OCCC[C@H](C(=O)NO)[C@@H](CC(C)C)C(=O)N1 [Compound 19, (6S,7R,10S)—N10-((S)-5-guanidino-1-(methylamino)-1-oxopentan-2-yl)-N6-hydroxy-7-isobutyl-8-oxo-2-oxa-9-aza-1(1,4)-benzenacycloundecaphane-6,10-dicarboxamide]	–	–	MMP binding profiles similar to the RP805 precursor	–	–	–	–	–
–	–	–	–	–	CC(C)C[C@H]1C(=O)N[C@H](C(=O)O)Cc2ccc(cc2)OCCC[C@@H]1C(=O)NO [Compound 20, (6S,7R,10S)-6-(hydroxycarbamoyl)-7-isobutyl-8-oxo-2-oxa-9-aza-1(1,4)-benzenacycloundecaphane-10-carboxylic acid]	–	–	–	–	–	1.7 ± 0.2 nM	101 ± 12.2 nM	60.6 ± 11 nM
0.4 nM	–	0.3 nM	–	–	CNC(=O)[C@H](Cc1c[nH]c2ccccc12)NC(=O)[C@@H](CC(=O)NO)CC(C)C [GM-6001, reference compound]	–	–	–	–	–	0.57 nM	–	–

Compound	Ki (rhMMP-7)	Ki (rhMMP-12; [1])	Ki (rhMMP-13)	Ki (rhMMP-2; [2])	Ki (rhMMP-9; [3])	affinity for rhMMP-12 (in words) (rhMMP-12)	affinity for rhMMP-2 (in words) (rhMMP-2)	MMP binding / inhibition constants (in words) (rhMMPs)	affinity for rhMMP-9 (in words) (rhMMP-9)	water solubility (in words) (Aqueous solubility)	Ki (rhMMP-12)	Ki (rhMMP-2)	Ki (rhMMP-9)
CC(C)CC1C(=O)NC(C(=O)NC(CCCNC(=N)N)C(=O)NCCNC(=O)c2ccc(NN)nc2)Cc2ccc(cc2)OCCCC1C(=O)NO [Compound 1, (6S,7R,10S)—N^10—((S)-5-guanidino-1-((2-(6-hydrazinylnicotinamido)ethyl)amino)-1-oxopentan-2-yl)-N^6-hydroxy-7-isobutyl-8-oxo-2-oxa-9-aza-1(1,4)-benzenacycloundecaphane-6,10-dicarboxamide]	33.2 ± 5 nM	2.2 ± 0.5 nM	16.9 ± 2.7 nM	10.4 nM	17.4 ± 2.1 nM	high affinity	high affinity	MMP binding profiles similar to the RP805 precursor; also recorded: nanomolar range inhibition constants	high affinity	good aqueous solubility; also recorded: good water solubility	–	–	–
